Values belong to the compound of their own block, whether it stands above or below them.
Columns and labels:
endogenous heparanase [1] = test: Immunoblot of endogenous heparanase protein in micromass cultures; assay type: cell-based, mouse
Description: ATDC5 cells were grown to 100% confluence in 6-well plates and treated with indicated concentrations of Surfen, bis-2-methyl-4-amino-quinolyl-6-carbamide. […] The membranes were re-blotted with antibodies to α-tubulin (Sigma T-5168, 1:2000) for normalization, and band intensities were quantified by computer-assisted image analysis.

endogenous heparanase [2] = test: Immunoblot of endogenous heparanase protein in ATDC5 cultures; assay type: cell-based, mouse; settings: compared with the micromass response
Description: ATDC5 cells, derived from mouse embryonal carcinoma, were cultured in 10 cm dishes with a 1:1 mixture of Dulbecco's modified Eagle's medium and Ham's F-12 (Life Technologies) supplemented with 5% fetal bovine serum (ATCC), 10 μg/ml human transferrin (Mediatech), […] sodium selenite (Mediatech), and 20 μg/ml insulin at 37° C. under 5% CO2. Experiments were conducted once cells reached confluence.
ATDC5 cells were grown to 100% confluence in 6-well plates and treated with indicated concentrations of Surfen, bis-2-methyl-4-amino-quinolyl-6-carbamide. Micromass cultures were treated with control vehicle, Surfen, human heparanase, roneparstat, or rhBMP2. At specified time points, total cellular proteins were harvested in SDS-PAGE sample buffer, electrophoresed on 4-15% SDS-Bis-Tris gels (40 μg per lane) and transferred to PVDF membranes (Invitrogen). Membranes were incubated overnight at 4° C. with dilutions of antibodies against phospho-Smad1/5/8 (Cell Signaling Technology 9511, 1:1000), Smad1 (Abcam 63439, 1:500) or human heparanase (Abcam 59787, 1:750). Enhanced chemiluminescent immunoblotting detection system (Pierce) was used to detect the antigen antibody complexes. The membranes were re-blotted with antibodies to α-tubulin (Sigma T-5168, 1:2000) for normalization, and band intensities were quantified by computer-assisted image analysis.

heparanase mRNA = test: Semi-quantitative RT-PCR of heparanase mRNA in micromass cultures; assay type: cell-based, mouse
Description: (§1) Micromass cultures were prepared from the mesenchymal cells of E11.5 mouse embryo limb buds (Ahrens et al. (1979) Dev. Biol., 69:436-50). Dissociated cells were suspended at a concentration of 5×10^6 cells/ml in DMEM containing 3% fetal bovine serum and antibiotics. Micromass cultures were initiated by spotting 20 μl of the cell suspensions (1.5×10^5 cells) onto the surface of 24-well tissue culture dishes. After a 90-minute incubation at 37° C. in a humidified CO2 incubator to allow for cell attachment, the cultures were supplied with 0.25 ml of medium. After 24 hours, medium supplemented with the indicated concentrations of Surfen (bis-2-methyl-4-aminoquinolyl-6-carbamide), bacterial heparitinase III (Sigma), recombinant human BMP2 (R&D Systems), recombinant human heparanase, or roneparstat (Sigma-Tau Research S.A.). Fresh reagents (drug and/or protein) were given with medium change every other day. Equivalent amounts of vehicle were added to control cultures. Cultures were stained with Alcian blue (pH 1.0) after four and six days to monitor chondrogenic cell differentiation by standard methods. […]
(§2) Total RNA was extracted from cells by the guanidine phenol method using TRIzol® reagent (Invitrogen) according to the manufacturer's protocols and measured using a NanoDrop. […] Band intensities were quantified by computer-assisted image analysis (ImageQuant™ TL, GE Healthcare).

[3] = test system: ADTC5 chondrogenic cell line; settings: Brown et al. 2008; cited from earlier work
[4] = test system: mesenchymal cells of E11.5 mouse embryo limb buds; test: Limb bud micromass chondrogenesis, alcian blue staining; assay type: cell-based; settings: three concentrations up to 20 μg/ml; dose-dependent; day 4 and 6
Description: (§3) Micromass cultures were prepared from the mesenchymal cells of E11.5 mouse embryo limb buds (Ahrens et al. (1979) Dev. Biol., 69:436-50). Dissociated cells were suspended at a concentration of 5×10^6 cells/ml in DMEM containing 3% fetal bovine serum and antibiotics. Micromass cultures were initiated by spotting 20 μl of the cell suspensions […] onto the surface of 24-well tissue culture dishes. After a 90-minute incubation at 37° C. in a humidified CO2 incubator to allow for cell attachment, the cultures were supplied with 0.25 ml of medium. After 24 hours, medium supplemented with the indicated concentrations of Surfen (bis-2-methyl-4-aminoquinolyl-6-carbamide), bacterial heparitinase III (Sigma), recombinant human BMP2 (R&D Systems), recombinant human heparanase, or roneparstat (Sigma-Tau Research S.A.). Fresh reagents (drug and/or protein) were given with medium change every other day. Equivalent amounts of vehicle were added to control cultures. Cultures were stained with Alcian blue (pH 1.0) after four and six days to monitor chondrogenic cell differentiation by standard methods. Micromass analysis was performed using ImageJ. Images were made binary under an RGB threshold, and “Particle Analysis” was utilized to measure nodule size, number, and Alcian blue positive area.

[5] = test system: mesenchymal cells of E11.5 mouse embryo limb buds; test: Micromass diameter (proliferation/migration of peripheral cells); assay type: cell-based; settings: day 4 and day 6
Description: as §1, with “S.A.).” for “S.A.). Fresh reagents (drug and/or protein) were given with medium change every other day. Equivalent amounts of vehicle were added to control cultures. Cultures were stained with Alcian blue (pH 1.0) after four and six days to monitor chondrogenic cell differentiation by standard methods.”
(§4) ATDC5 cells were treated at day 0 with human heparanase (400 ng/ml) or a vehicle control. […] DNA isolation was performed using TRIzol® reagent (Invitrogen) according to the manufacturer's protocols and measured using a NanoDrop (ThermoScientific). ATDC5 migration was analyzed via a scratch test. […] The open scratch area was quantified with ImageJ (n=6/treatment group). In micromass cultures, migration was determined by expansion of the micromass itself from day 0 to day 4 or 6. The diameters of untreated micromasses (n=10) were measured and averaged for a baseline size. […]

[6] = test system: collagen II (ColII), aggrecan (Agg) and Runx2; test: Semi-quantitative RT-PCR of chondrogenic marker genes in micromass cultures; assay type: cell-based, mouse; settings: micromass day 4 and 6
Description: as §3
Total RNA was extracted from cells by the guanidine phenol method using TRIzol® reagent (Invitrogen) according to the manufacturer's protocols and measured using a NanoDrop. One μg of total RNA was reverse transcribed using the SuperScript® III First-Strand Synthesis System (Life Technologies). Band intensities for semiquantitative PCR were normalized to GAPDH and compared while band intensities and cycle numbers were linear. […] Band intensities were quantified by computer-assisted image analysis (ImageQuant™ TL, GE Healthcare).

[7] = test system: mesenchymal cells of E11.5 mouse embryo limb buds; test: Cell number, density and whole cellular RNA/DNA content of micromass cultures; assay type: cell-based
Description: as §1, with “methods. Micromass analysis was performed using ImageJ.” for “methods.”
as §4, §2

heparanase = target: T1, heparanase (Homo sapiens, UniProt Q9Y251); settings: Ritchie et al. 2011; cited from earlier work
T1 sequence (Q9Y251 158-543 limits assumed): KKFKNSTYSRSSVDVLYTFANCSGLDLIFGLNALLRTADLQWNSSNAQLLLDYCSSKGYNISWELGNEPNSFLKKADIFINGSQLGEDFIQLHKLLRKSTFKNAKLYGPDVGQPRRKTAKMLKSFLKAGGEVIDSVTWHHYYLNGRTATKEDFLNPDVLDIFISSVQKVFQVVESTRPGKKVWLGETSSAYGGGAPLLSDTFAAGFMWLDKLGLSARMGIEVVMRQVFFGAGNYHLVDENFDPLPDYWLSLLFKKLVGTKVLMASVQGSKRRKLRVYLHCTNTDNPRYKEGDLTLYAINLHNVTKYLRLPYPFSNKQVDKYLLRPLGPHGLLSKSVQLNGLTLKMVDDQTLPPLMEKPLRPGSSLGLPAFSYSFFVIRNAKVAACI
T1 sequence (Q9Y251 36-109 limits assumed): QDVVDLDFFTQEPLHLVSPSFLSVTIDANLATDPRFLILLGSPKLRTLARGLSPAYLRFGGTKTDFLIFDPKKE

[8] = literature; cited from earlier work
[9] = mouse models of diabetic nephropathy; cited from earlier work
[10] = test system: myeloma and sarcoma cells; settings: mouse models; Ritchie 2011, Cassinelli 2013; cited from earlier work

- increase of endogenous heparanase protein levels (endogenous heparanase [1]; 7.5 μM, limb micromass cultures, immunoblot densitometry): about 8 fold
- heparanase mRNA amounts (heparanase mRNA): increased
Compound: Cc1cc(N)c2cc(NC(=O)Nc3ccc4nc(C)cc(N)c4c3)ccc2n1 [Surfen, bis-2-methyl-4-aminoquinolyl-6-carbamide]
- endogenous heparanase protein levels in ADTC5 cell cultures (endogenous heparanase [2]): very similar response

Compound: PI-88
- alcian blue staining and cartilage gene expression [3]: only modest reductions

- levels of endogenous heparanase vs untreated control cultures (endogenous heparanase [1]; micromass cultures, immunoblot): reduced
- whole cellular RNA and DNA content, treated vs untreated ([7]; day 4 and day 6): remained similar
- whole cellular RNA and DNA content ([7]; maximal 20 μg/ml dose): minor decreases
Compound: roneparstat
- formation of alcian blue-positive chondrogenic nodules [4]: strongly reduced
- overall diameter of micromass cultures vs control [5]: reduced the overall diameter
- expression of Runx2 [6]: dose-dependently inhibited
- expression of aggrecan (Agg) [6]: dose-dependently inhibited
- expression of collagen II (ColII) [6]: dose-dependently inhibited
- overall cell number and density (hematoxylin counterstaining) ([7]; after treatment of micromass cultures): had not changed significantly
- inhibitory activity on heparanase (heparanase): very strong inhibitory activity
- anticoagulant properties [8]: without anticoagulant properties
- extent of albuminuria and renal damage [9]: markedly decreases
- growth of myeloma and sarcoma cells and concomitant angiogenesis [10]: interfere with the growth

— US20180110799A1, “Compositions and Methods for the Inhibition of Chondrogenesis” (The Children's Hospital of Philadelphia, priority 2014, published 2018)
